Test results as given in patent US7081468B2, “Ortho-substituted anthranilic acid amides and their use as medicaments” (Schering AG, priority 2000, dated 2006).

Legend:
KDR kinase = KDR kinase (Homo sapiens, UniProt P35968); test: Inhibition of the KDR kinase activity (33P-ATP, poly-(Glu4Tyr) filter assay); type: biochemical; details: 10 minutes at room temperature
Method: Solutions Required for the Tests
• Stock solution A: 3 mmol of ATP in water, pH 7.0 (−70° C.) • Stock solution B: g-33P-ATP 1 mCi/100 μl • Stock solution C: poly-(Glu4Tyr) 10 mg/ml in water Solution for Dilutions • Substrate solvent: 10 mmol of DTT, 10 mmol of manganese chloride, 100 mmol of magnesium chloride • Enzyme solution: 120 mmol of tris/HCl, pH 7.5, 10 μM of sodium vanadium oxide Sample Application 1 Inhibition of the KDR Kinase Activity in the Presence of the Compounds According to the Invention
In a microtiter plate (without protein binding) that tapers to a point, 10 μl of substrate mix (10 μl of volume of ATP stock solution A+25 μCi of g-33P-ATP (about 2.5 μl of stock solution B)+30 μl of poly-(Glu4Tyr) stock solution C+1.21 ml of substrate solvent), 10 μl of inhibitor solution (substances corresponding to the dilutions, 3% DMSO in substrate solvent as a control) and 10 μl of enzyme solution (11.25 μg of enzyme stock solution (KDR or FLT-1 kinase) are added at 4° C. in 1.25 ml of enzyme solution (dilute). It is thoroughly mixed and incubated for 10 minutes at room temperature. Then, 10 μl of stop solution (250 mmol of EDTA, pH 7.0) is added, mixed, and 10 μl of the solution is transferred to a P 81 phosphocellulose filter. Then, it is washed several times in 0.1 M phosphoric acid. The filter paper is dried, coated with Meltilex and measured in a microbeta counter.
The IC50 values are determined from the inhibitor concentration that is necessary to inhibit the phosphate incorporation to 50% of the uninhibited incorporation after removal of the blank reading (EDTA-stopped reaction).

C-Kit = C-Kit (Homo sapiens, UniProt P10721); test: C-Kit-isolated kinase-inhibition test; type: biochemical; details: 10 minutes incubation
Method: C-Kit-Isolated Kinase-Inhibition Test
Assay Solutions Substrate Solutions for 125 Assays:
10 μl of ATP (37.5 μM), 25 μCi of γ33P-ATP (˜+2.5 μl of Amersham redivue solution) and 10 μl of poly-(glu,tyr) are mixed with 1.23 ml of solvent (1×).
The compounds are brought to the desired concentration in the solvent (1×).
The corresponding enzymatic preparation is brought to the necessary concentration with the solvent (1×) to obtain 1.24 ml. Then, 12.5 μl of sodium vanadate solution is added.
The components are added in the following sequence to a microtiter plate with round or stippled floors:
10 μl of the inhibitor in 3× final concentration,
10 μl of substrate mixture,
said components are mixed, and the reaction is started by adding:
10 μl of enzyme preparation.
The batch is incubated for 10 minutes and then brought to a halt by adding 10 μl of stop solution. 10 μl of the thus treated batch is added to the phosphocellulose filter, rewashed in phosphoric acid, then dried and then melted in a meltilex scintillator and measured.

Sequence of KDR kinase (P35968 20-1356): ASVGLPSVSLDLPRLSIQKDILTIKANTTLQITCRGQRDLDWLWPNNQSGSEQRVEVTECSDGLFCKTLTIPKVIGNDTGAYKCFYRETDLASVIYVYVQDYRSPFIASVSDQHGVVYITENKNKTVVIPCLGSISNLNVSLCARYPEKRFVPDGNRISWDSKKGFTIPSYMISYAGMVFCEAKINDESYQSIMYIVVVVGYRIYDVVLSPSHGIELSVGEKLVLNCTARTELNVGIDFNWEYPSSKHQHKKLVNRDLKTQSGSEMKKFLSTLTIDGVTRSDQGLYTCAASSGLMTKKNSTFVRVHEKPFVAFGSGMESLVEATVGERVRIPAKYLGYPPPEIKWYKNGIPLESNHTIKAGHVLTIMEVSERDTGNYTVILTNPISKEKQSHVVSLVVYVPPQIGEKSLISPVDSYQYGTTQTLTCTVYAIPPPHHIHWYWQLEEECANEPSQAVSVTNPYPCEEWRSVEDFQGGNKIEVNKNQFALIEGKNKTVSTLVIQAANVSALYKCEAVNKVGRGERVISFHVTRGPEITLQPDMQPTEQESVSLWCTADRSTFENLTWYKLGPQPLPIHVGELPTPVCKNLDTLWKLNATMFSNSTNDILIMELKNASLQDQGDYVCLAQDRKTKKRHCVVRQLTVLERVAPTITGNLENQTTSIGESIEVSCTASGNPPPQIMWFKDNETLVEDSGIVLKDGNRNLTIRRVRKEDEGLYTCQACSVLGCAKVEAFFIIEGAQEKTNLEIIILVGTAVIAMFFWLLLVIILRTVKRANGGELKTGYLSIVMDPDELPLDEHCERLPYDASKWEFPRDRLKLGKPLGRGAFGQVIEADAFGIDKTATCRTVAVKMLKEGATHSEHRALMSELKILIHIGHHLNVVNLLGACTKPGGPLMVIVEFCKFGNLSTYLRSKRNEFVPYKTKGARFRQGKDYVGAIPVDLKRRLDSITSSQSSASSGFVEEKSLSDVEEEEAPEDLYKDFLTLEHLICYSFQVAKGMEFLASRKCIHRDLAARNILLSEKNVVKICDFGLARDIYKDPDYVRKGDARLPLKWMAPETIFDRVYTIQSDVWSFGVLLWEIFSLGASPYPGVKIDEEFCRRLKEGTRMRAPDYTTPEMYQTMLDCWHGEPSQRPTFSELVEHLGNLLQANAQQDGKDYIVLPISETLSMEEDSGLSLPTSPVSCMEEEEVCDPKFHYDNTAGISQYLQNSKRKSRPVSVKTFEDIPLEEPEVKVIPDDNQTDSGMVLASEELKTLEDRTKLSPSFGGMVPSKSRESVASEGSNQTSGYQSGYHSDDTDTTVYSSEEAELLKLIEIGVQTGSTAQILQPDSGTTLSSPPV
Sequence of C-Kit (P10721 26-976): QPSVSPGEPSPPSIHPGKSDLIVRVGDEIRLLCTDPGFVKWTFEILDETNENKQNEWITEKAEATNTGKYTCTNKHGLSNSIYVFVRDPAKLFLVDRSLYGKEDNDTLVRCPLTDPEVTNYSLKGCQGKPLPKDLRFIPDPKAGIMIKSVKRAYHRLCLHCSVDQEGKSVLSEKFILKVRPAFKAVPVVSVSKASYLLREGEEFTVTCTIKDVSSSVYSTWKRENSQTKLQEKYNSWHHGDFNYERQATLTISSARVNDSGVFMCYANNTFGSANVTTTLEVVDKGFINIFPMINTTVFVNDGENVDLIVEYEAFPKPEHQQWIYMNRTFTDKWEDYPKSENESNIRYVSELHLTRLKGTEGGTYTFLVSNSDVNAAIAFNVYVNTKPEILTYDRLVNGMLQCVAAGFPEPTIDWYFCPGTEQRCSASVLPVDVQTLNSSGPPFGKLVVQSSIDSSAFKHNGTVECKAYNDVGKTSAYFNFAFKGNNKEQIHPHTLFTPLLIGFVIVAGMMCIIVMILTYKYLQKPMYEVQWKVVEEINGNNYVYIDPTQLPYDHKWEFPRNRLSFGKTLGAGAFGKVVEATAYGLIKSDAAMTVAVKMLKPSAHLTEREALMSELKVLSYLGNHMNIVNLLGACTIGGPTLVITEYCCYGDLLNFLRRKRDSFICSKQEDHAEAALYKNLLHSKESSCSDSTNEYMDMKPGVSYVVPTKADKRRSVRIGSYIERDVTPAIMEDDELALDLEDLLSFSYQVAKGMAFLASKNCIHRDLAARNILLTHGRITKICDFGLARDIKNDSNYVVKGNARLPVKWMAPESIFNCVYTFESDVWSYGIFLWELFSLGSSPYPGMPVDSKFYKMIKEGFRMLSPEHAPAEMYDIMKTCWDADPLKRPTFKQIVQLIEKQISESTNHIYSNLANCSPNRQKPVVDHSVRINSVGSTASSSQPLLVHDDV

| SMILES | IC50 (KDR kinase) [nM] | IC50 (C-Kit) [nM] | melting point [°C] |
| --- | --- | --- | --- |
| O=C(Nc1cc2cc(Br)ccc2oc1=O)c1ccccc1NCc1ccncc1 [Example 7] | 200 | > 10000 | 198 to 200 |
| COc1ccc(C(F)(F)F)cc1NC(=O)c1ccccc1NCc1ccncc1 [Example 13] | 50 | 5000 | 135 |
| O=C(Nc1cc(C(F)(F)F)ccc1C(F)(F)F)c1ccccc1NCc1ccncc1 [Example 17] |  | > 10000 | 68 |
| O=C(Nc1cc2cn[nH]c2cc1Cl)c1ccccc1NCc1ccncc1 [Example 2, N-(6-Chloroindazol-5-yl)-2-[(4-pyridyl)methyl]amino-benzoic acid amide] | 200 | > 10000 |  |
| Cc1cc2cc(Cl)ccc2nc1NC(=O)c1ccccc1NCc1ccc(O)nc1 [Example 28] | 50 | 500 | 172 |
| O=C(Nc1ncc2ccccc2c1Br)c1ccccc1NCc1ccncc1 [Example 26] | 1 | 2000 | 135.8 |
| Cc1cc2cn[nH]c2cc1NC(=O)c1ccccc1NCc1ccncc1 [Example 9] | 40 |  |  |
| O=C(Nc1cc(C(F)(F)F)ccc1Cl)c1ccccc1NCc1ccncc1 [Example 14] | 1 | 5000 | 105 |
| O=C(Nc1cc(C(F)(F)F)ccc1F)c1ccccc1NCc1ccncc1 [Example 15] | 2 | 2000 |  |
| O=C(Nc1cc2cc(Cl)ccc2oc1=O)c1ccccc1NCc1ccncc1 [Example 6] | 200 |  | 182 to 184 |

Further compounds by falling IC50 (KDR kinase), results first:

| IC50 (KDR kinase) [nM] | IC50 (C-Kit) [nM] | melting point [°C] | SMILES |
| --- | --- | --- | --- |
| 1000 | > 10000 | 224.2 | Cc1cc2[nH]ncc2cc1NC(=O)c1ccccc1NCc1ccncc1 [Example 11] |
| 30 | 8000 | 191.2 | Cc1cc2oc(=O)ccc2cc1NC(=O)c1ccccc1NCc1ccncc1 [Example 3] |
| 10 | > 10000 | 171 to 172 | COc1ccc2cc(NC(=O)c3ccccc3NCc3ccncc3)c(=O)oc2c1 [Example 5] |
| 10 | > 10000 | 236.7 | O=C(Nc1cc2[nH]ncc2cc1Cl)c1ccccc1NCc1ccncc1 [Example 10] |
| 3 | 6000 |  | O=C(Nc1cc2ccccc2oc1=O)c1ccccc1NCc1ccncc1 [Example 1, N-[2-Oxo-2H-1-benzopyran-3-yl-]-2-[(4-pyridyl)methyl]amino-benzoic acid amide] |
